The values below come from US8758730B2, “Compositions, use and method for the use of surface active proteins in topical drug delivery across keratin” (B.R.A.I.N. Biotechnology Research and Information Network AG, priority 2009, dated 2014).

Data set [1] is classed as in vitro ADME. The text has this:
A formulation with one enhancer, Trichoderma reesei hydrophobin HFBII (isolation see […]., Aro, […]. and […]. 1997, Differential expression of the vegetative and spore-bound hydrophobins of Tricoderma reesei, Cloning and characterization of the hfb2 gene. Eur. J. […] As ethanol is a potential solvent for substances poorly soluble in water and prevents from microbiological growth, a better or a similar permeability is desirable. […] With this caffeine-concentration the solution was nearly saturated. This was intended to achieve a faster steady state according to the highest concentration gradient possible. Phosphate buffered saline (PBS) was prepared with a pH of 7.4. Both pH and osmolality of PBS simulated in the Franz diffusion cell's acceptor chamber the physiological conditions of blood (a systemic buffer system). The water used for the formulations and PBS was freshly produced, double distilled and filtered. Healthy nails for the permeability experiments were obtained from the Institute of Anatomy of the University of Basel and from the Institute of Anatomy of the University of Freiburg, Germany. […] The concentrations of the samples were measured with UV-spectrophotometry. Flux and permeation coefficients were calculated with the values after 48 hours, as in this time a steady state was obtained.

Data set [2] can be described thus: Nail penetration study with Terbinafine (example 1a). It counts as in vitro ADME. Particulars: reference solution: 10% (w/v) Terbinafine in 60% (v/v) ethanol/water, no hydrophobin; average of 3. How it is done:
Healthy nails for the permeability experiments were obtained from the Institute of Anatomy of the University of Basel and from the Institute of Anatomy of the University of Freiburg, Germany. Franz Diffusion Cells (SES GmbH—Analysesysteme, Bechenheim, Germany) with a diffusion area of 0.785 cm^2 were used. […] Subsequently, they were mounted in the diffusion cells in an appropriate manner. The acceptor chamber below the nail was filled with 5 ml PBS. The formulation (400 μl) was applied onto the nail. In order to keep the temperature in the system constant, the glass cells were tempered by a water jacket kept at 32°. The acceptor chambers were stirred with a magnetic stirrer at 400 rpm. The openings for the formulations and the extensions for taking samples were covered with Parafilm (film comprising paraffin wax and polyethene; American National Can Company, USA). A sample of 400 μl was taken from each cell twice a day and replaced with the same amount of PBS warmed to 32° C. […] The concentrations of the samples were measured with UV-spectrophotometry. Flux and permeation coefficients were calculated with the values after 48 hours, as in this time a steady state was obtained. […]

Data set [3] relates to cells in the skin model (EST-1000). It counts as cell-based. Particulars: human, 48 h, 1 %. How it is done:
Cytotoxicity of the test samples on the skin culture was determined by MTT-assay according to the instructions of the skin model provider. The viability of the cells in the skin model was not influenced by the solvents (50% ethanol, 0.002% SDS) as compared to cultures treated with PBS only. A viability of about 50% of that of the control cultures was observed when 1% caffeine or 1% caffeine/10 μg hydrophobin (SC3 or HFB II, respectively) were applied on the skin culture, showing that hydrophobin itself was not cytotoxic at a concentration of 200 μg/ml. The barrier function of the skin model is probably not influenced profoundly by the reduced viability of the cells, since the upper layer keratinocytes comprises non living cells.

Data set [4] is classed as in vitro ADME, human. How it is done:
The penetration of caffeine through the skin was measured using a human epidermal skin model (EST-1000, Cell Systems, St. Katharinen, Germany). The in vitro model for human skin consists of a robust multilayer three-dimensional cell culture, which has been grown for 14 days and has skin-like properties. The cellular structure of EST-1000 resembles that of the natural epidermis showing a base membrane, proliferating keratinocytes and stratum corneum with an intact barrier function. The tissues were provided in cell culture inserts with a polycarbonate membrane with 0.63 cm^2 surface area and 0.4 μm pore size. The membranes were covered completely by the cells and show a matte white, dry surface after complete differentiation. The inserts were handled easily by the use of a sterile forceps. Upon delivery, the skin inserts were equilibrated by placing each insert into a well of a 6-well cell culture dish containing 1 ml of maintenance medium (provided by Cell Systems). After 4-12 hours of equilibration the test substance was applied on the dry surface of the skin model. Penetration of substances applied onto the surface of the skin culture through the skin model was measured by sampling the medium surrounding the insert and detecting the concentration of the test substance, here caffeine. […] Caffeine was purchased from Sigma and applied in a concentration of 10 mg/ml (1% w/v). […]

Take `C[S+](C)[O-]` [DMSO, dimethylsulfoxide]: the “Enhancement factor (EF) in 20% (v/v) EtOH/water” value in data set [1] turned out to be 3.25. Turning to `CN(C/C=C/C#CC(C)(C)C)Cc1cccc2ccccc12` [Terbinafine], the “Cumulated amount of Terbinafine penetrated through nail after 10 days” value in data set [2] is roughly 12 mg/cm2. Take `Cn1c(=O)c2c(ncn2C)n(C)c1=O` [caffeine]: the “Viability relative to control cultures (MTT)” value in data set [3] was “about 50%”.

B1: SC3: class I hydrophobin of 112 amino acids from Schizophyllum commune, accession P16933 (protein, UniProt P16933 25-136, looked up)
Class I hydrophobin SC3: GGHPGTTTPPVTTTVTVTTPPSTTTIAAGGTCTTGSLSCCNQVQSASSSPVTALLGLLGIVLSDLNVLVGISCSPLTVIGVGGSGCSAQTVCCENTQFNGLINIGCTPINIL
In the case of B1, the “Enhancement of penetration of caffeine (1% w/v) through in vitro model of human skin” value in data set [4] is listed as “up to 21.5%”.
